According to US20230165868A1, “PARAXANTHINE-BASED COMPOSITIONS FOR ENHANCING MUSCLE FUNCTION, NITRIC OXIDE SIGNALING, AND/OR MUSCLE GLYCOGEN LEVELS” (Ingenious Ingredients, LP, priority 2021, published 2023):

Columns and labels:
[1] = Body weight during 28-day oral supplementation; type: in vivo, Swiss Albino mice; settings: mean ± SD, n = 8 mice
Experimental: (§1) Forty 8-week-old male Swiss Albino mice were housed in an animal room at a constant temperature (22±3° C.) and humidity (30%-70%) under a 12:12 h light-dark cycle with standard laboratory diet (Purina 5L79, Rat and Mouse 18% protein; PMI Nutrition International, Brentwood, Mo., USA). Distilled water was provided ad libitum. All animal experiments were reviewed and approved by the Institutional Animal Ethical Committee (IAEC) of Radiant Research Services Pvt. Ltd (Bangalore, India). All research was conducted in accordance with the guidelines of the committee for the purpose of control and supervision of experiments on animals (CPCSEA Registration Number-1803/PO/RcBi/S/2015/CPCSEA).
(§2) After one week of acclimation, the animals were randomly divided by body weight into five groups (n=8 per group in each test) for oral treatment once a day, at approximately same time each day (±1 hour), for 28 consecutive days: (1) vehicle control; (2) paraxanthine (3) L-theanine; (4) alpha-GPC; and (5) taurine. The dose administered to the mice was calculated using US Food and Drug Administration for human equivalence doses (HED), assuming a human weight of 60 kg. The following HED were used in this study: 100 mg paraxanthine, (ENFINITY™, Ingenious Ingredients, L.P Lewisville, Tex., USA; mouse dose: 20.5 mg/kg bw/day); 200 mg alpha-GPC mg (YangLing Daily Health Bio-Engineering Technology Co., Ltd; mouse dose: 41.09 mg/kg bw), 50 mg L-theanine (Hangzhou Qinyuan Natural Plant High-tech Co., Ltd; mouse dose: 10.28 mg/kg bw), and 500 mg taurine (Jiangyin Huachang Food Additive Co., Ltd; mouse dose: 102.75 mg/kg bw). 0.5% Carboxy Methyl Cellulose sodium was used as vehicle and the test item formulations were prepared daily. Dosing was conducted via oral gavage using disposable polypropylene syringes with sterilized stainless steel gavage tubes. The food intake and water consumption were monitored daily, and BW was recorded weekly. The last dose on day 28 was given 1 hour prior to testing.

[2] = Feed consumption during 28-day oral supplementation; type: in vivo, Swiss Albino mice; settings: mean ± SD, n = 8 mice
Experimental: as §1, §2

male Swiss Albino mice [3] = assay: Forelimb grip strength test; type: in vivo; settings: for Baseline forelimb grip strength: day 0 baseline, time holding steel bar, mean of three trials; for increase in forelimb grip strength compared to control: day 28, one hour after oral treatment, vs vehicle control
Experimental: After one week of acclimation, the animals were randomly divided by body weight into five groups (n=8 per group in each test) for oral treatment once a day, at approximately same time each day (±1 hour), for 28 consecutive days: (1) vehicle control; (2) paraxanthine (3) L-theanine; […] The dose administered to the mice was calculated using US Food and Drug Administration for human equivalence doses (HED), assuming a human weight of 60 kg. […] Dosing was conducted via oral gavage using disposable polypropylene syringes with sterilized stainless steel gavage tubes. The food intake and water consumption were monitored daily, and BW was recorded weekly. The last dose on day 28 was given 1 hour prior to testing. The forelimb grip strength was measured on day 0 and day 28 by using a stainless-steel grill to assess muscle strength (Orchid Scientific & Innovative India Pvt Ltd, India). Grip strength was measured one hour after treatment. Briefly, each mouse was placed on a grill chamber and the steel bar is inverted; grip strength is measured by recording the time each animal holds the steel bar. The maximum time for each trial was six minutes. Each animal performed three independent trials separated by six minutes intervals and the mean of the three trials was calculated.

male Swiss Albino mice [4] = assay: Treadmill endurance test; type: in vivo; settings: for Distance traveled on treadmill / increase in distance traveled during treadmill exercise compared to control: after 28 days of supplementation; for Distance traveled on treadmill: run until exhaustion, n=8; for Distance traveled on treadmill / Baseline treadmill performance (distance): mean ± SD; for increase in distance traveled during treadmill exercise compared to control: vs vehicle control
Experimental: (2) paraxanthine (3) L-theanine; […] The dose administered to the mice was calculated using US Food and Drug Administration for human equivalence doses (HED), assuming a human weight of 60 kg. […] Dosing was conducted via oral gavage using disposable polypropylene syringes with sterilized stainless steel gavage tubes. The food intake and water consumption were monitored daily, and BW was recorded weekly. The last dose on day 28 was given 1 hour prior to testing. […] All animals were adapted to this procedure daily 60 minutes after dosing for five days in a week during the treatment period. On 28th day of each respective treatment, all animals were subjected to a muscle endurance test. […] Animals were subjected to the treadmill test until exhaustion. Distance traveled (cm) was measured as a marker of exercise performance.

[5] = Clinical biochemical profiles of serum; type: in vivo, Swiss Albino mice; settings: serum at end of 28-day treatment; mean ± SD, n = 8
Experimental: (§3) After one week of acclimation, the animals were randomly divided by body weight into five groups (n=8 per group in each test) for oral treatment once a day, at approximately same time each day (±1 hour), for 28 consecutive days: (1) vehicle control; (2) paraxanthine (3) L-theanine; […] The dose administered to the mice was calculated using US Food and Drug Administration for human equivalence doses (HED), assuming a human weight of 60 kg. […] Dosing was conducted via oral gavage using disposable polypropylene syringes with sterilized stainless steel gavage tubes. The food intake and water consumption were monitored daily, and BW was recorded weekly. The last dose on day 28 was given 1 hour prior to testing. All animals were euthanized by 95% CO2 after 28 days of following their assigned treatment. Blood was collected immediately after euthanization by the retro-orbital route and was immediately centrifuged at 1500×g for 10 min at 4° C. before having all serum transferred into cryogenic tubes and stored at -80° C. The liver, heart, gastrocnemius and soleus were excised and weighed. Collected serum was analyzed for clinical biochemical variables including aspartate aminotransaminase (AST), alanine aminotransaminase (ALT), alkaline phosphatase (ALP), uric acid (UA), creatinine, total cholesterol (TC), triglycerides (TG), high-density lipoproteins (HDL), and low-density lipoproteins (LDL) were measured using an auto analyzer (EM360, ERBA Diagnostics Mannheim GmbH, Mannheim, Germany). Nitric oxide was analyzed using standard ELISA assay kits (Lot No: E-BC-[…], Elabscience, Houston, Tex., USA).

male Swiss Albino mice [6] = assay: Muscle weight (gastrocnemius, soleus) after 28 days; type: in vivo; settings: after 28 days of supplementation; vs vehicle control
Experimental: (§4) (2) paraxanthine (3) L-theanine; […] The dose administered to the mice was calculated using US Food and Drug Administration for human equivalence doses (HED), assuming a human weight of 60 kg. […] Dosing was conducted via oral gavage using disposable polypropylene syringes with sterilized stainless steel gavage tubes. The food intake and water consumption were monitored daily, and BW was recorded weekly. The last dose on day 28 was given 1 hour prior to testing. All animals were euthanized by 95% CO2 after 28 days of following their assigned treatment. Blood was collected immediately after euthanization by the retro-orbital route and was immediately centrifuged at 1500×g for 10 min at 4° C. before having all serum transferred into cryogenic tubes and stored at -80° C. The liver, heart, gastrocnemius and soleus were excised and weighed.

[7] = Liver and heart mass / gross pathology; type: in vivo, Swiss Albino mice; settings: after 28 days of treatment; mean ± SD, n = 8
Experimental: as §4

Nitric oxide = assay: Serum nitric oxide ELISA; type: in vivo, Swiss Albino mice; settings: serum after 28 days of treatment; for Nitric Oxide: mean ± SD, n = 8; for increase in nitric oxide levels over control: vs vehicle control
Experimental: as §3

| feed consumption ([2]; Week 1) | feed consumption ([2]; Week 2) | feed consumption ([2]; Week 3) | feed consumption ([2]; Week 4) | ALP [5] | Creatinine [5] | Urea [5] | Compound | body weight ([1]; Basal) | body weight ([1]; Week 1, oral once daily) | body weight ([1]; Week 2, oral once daily) | body weight ([1]; Week 3, oral once daily) | body weight ([1]; Week 4, oral once daily) | Baseline forelimb grip strength (male Swiss Albino mice [3]) | increase in forelimb grip strength compared to control (male Swiss Albino mice [3]) | Distance traveled on treadmill (male Swiss Albino mice [4]) | increase in distance traveled during treadmill exercise compared to control (male Swiss Albino mice [4]) | Baseline treadmill performance (distance) (male Swiss Albino mice [4]) | ALT [5] | AST [5] | increase in gastrocnemius muscle mass compared to control (male Swiss Albino mice [6]) | other results |
| --- | --- | --- | --- | --- | --- | --- | --- | --- | --- | --- | --- | --- | --- | --- | --- | --- | --- | --- | --- | --- | --- |
| 40.91 ± 0.55 grams | 43.34 ± 0.40 grams | 45.49 ± 0.40 grams | 47.54 ± 0.42 grams | 179.3 ± 3.99 U/L | 0.90 ± 0.16 mg/dL | 29.38 ± 1.41 mg/dL | C[N+](C)(C)CCOP(=O)([O-])OC[C@H](O)CO [Alpha-GPC, L-alpha glycerylphosphorylcholine] | 22.50 ± 0.44 grams | 24.10 ± 0.40 grams | 27.05 ± 0.50 grams | 29.14 ± 0.49 grams | 31.68 ± 0.44 grams | 91.00±0.40 | 8% | 1,695±53.0 centimeters | did not increase treadmill performance | 248.6±42.2 cm | 23.63 ± 1.51 U/L | 38.88 ± 2.10 U/L | no effect on muscle mass | increase in soleus muscle mass compared to control (male Swiss Albino mice [6]): no effect on muscle mass; Heart mass [7]: 189 ± 1.0 mg; Liver mass [7]: 1,869 ± 32 mg; Nitric Oxide (Nitric oxide): 9.21 ± 2.33 ng/mL; increase in nitric oxide levels over control (Nitric oxide): 42% |
| 41.26 ± 0.86 grams | 43.50 ± 0.66 grams | 45.30 ± 0.48 grams | 47.60 ± 0.51 grams | 177.1 ± 3.68 U/L | 0.89 ± 0.11 mg/dL | 28.75 ± 1.28 mg/dL | CCNC(=O)CC[C@H](N)C(=O)O [L-Theanine, L-theanine] | 22.41 ± 0.49 grams | 24.20 ± 0.56 grams | 26.76 ± 0.71 grams | 29.00 ± 0.60 grams | 31.60 ± 0.64 grams | 87.90±2.63 | 12% | 1,710±127 centimeters | 13% | 265.4±32.9 cm | 24.25 ± 1.28 U/L | 40.25 ± 2.44 U/L | 5% | increase in soleus muscle mass compared to control (male Swiss Albino mice [6]): but not soleus muscle mass; Heart mass [7]: 189 ± 2.3 mg; Liver mass [7]: 1,866 ± 43 mg; Nitric Oxide (Nitric oxide): 10.23 ± 1.26 ng/mL; increase in nitric oxide levels over control (Nitric oxide): 57% |
| 41.73 ± 046 grams | 43.89 ± 0.68 grams | 46.00 ± 0.59 grams | 48.34 ± 0.68 grams | 179.4 ± 2.56 U/L | 0.86 ± 0.11 mg/dL | 29.13 ± 0.99 mg/dL | Cn1c(=O)[nH]c2ncn(C)c2c1=O [Paraxanthine, 1,7-dimethylxanthine] | 22.01 ± 0.40 grams | 23.86 ± 0.55 grams | 26.95 ± 0.41 grams | 29.68 ± 0.45 grams | 32.80 ± 0.48 grams | 90.60±0.92 | 17% | 2,100±133 centimeters | 39% | 255.3±30.7 cm | 23.88 ± 0.99 U/L | 39.50 ± 1.60 U/L | 14% | increase in soleus muscle mass compared to control (male Swiss Albino mice [6]): 41%; Heart mass [7]: 190 ± 1.4 mg; Liver mass [7]: 1,870 ± 31 mg; Nitric Oxide (Nitric oxide): 13.06 ± 0.58 ng/mL; increase in nitric oxide levels over control (Nitric oxide): 101% |
| 40.95 ± 0.60 grams | 43.21 ± 1.25 grams | 45.21 ± 1.15 grams | 47.36 ± 1.08 grams | 180.4 ± 5.42 U/L | 0.93 ± 0.14 mg/dL | 29.38 ± 1.60 mg/dL | NCCS(=O)(=O)O [Taurine, taurine] | 22.50 ± 0.49 grams | 24.08 ± 0.66 grams | 26.99 ± 0.82 grams | 29.06 ± 0.69 grams | 32.34 ± 3.06 grams | 90.94±0.85 | failed to reach statistical significance | 1,671±125 centimeters | did not increase treadmill performance | 256.9±29.3 cm | 25.00 ± 1.07 U/L | 40.13 ± 2.36 U/L | no effect on muscle mass | increase in soleus muscle mass compared to control (male Swiss Albino mice [6]): no effect on muscle mass; Heart mass [7]: 190 ± 1.2 mg; Liver mass [7]: 1,834 ± 52 mg; Nitric Oxide (Nitric oxide): 7.56 ± 0.29 ng/mL |
